We go through three compounds from patent publication US8778975B2, “Helicobacter pylori eradicating agent having inhibitory activity on gastric acid secretion” (Link Geonomics, Inc., priority 2006, dated 2014).

In general, MIC refers to the least concentration at which growth counts as inhibited.

The subject of this test is Helicobacter pylori standard strains ATCC 43504, ATCC 43629, ATCC 43570 and clinically separated strains. In words: Anti-Helicobacter pylori activity (MIC), standard and clinically separated strains, Pharmacological Test Example 2. It is filed as cell-based. The method, then:
For the bacterium Helicobacter pylori, standard strains ATCC 43504, ATCC 43629 and ATCC 43570 were used to perform in vitro tests in Columbia agar medium. The bacteria were cultured at 37° C. and pH 7.0 for 3 days. On the 4th day, the minimum growth inhibitory concentration (MIC, μg/ml) was determined. Each of the specimens was dissolved in a 1% DMSO solution. Furthermore, amoxicillin and clarithromycin were used as control drugs of antibacterial substance. Further, the compound described in the article of Thomas C. Kuehler (J. Med.

[1] abbreviates: Clinically separated strain PT1045482.
Setting [2] is: Clinically separated strain PT1045483.
Setting [3] is: Clinically separated strain PT1045484.

≈ marks a conversion by molar mass, not a printed value.

As to `CCCCCCCOc1ccnc(CSc2nc3ccccc3[nH]2)c1C` [Example 3, 2-[(4-n-heptyloxy-3-methylpyridin-2-yl)-methylthio]-1H-benzimidazole], the MIC stood at 0.1 µg/mL (≈ 0.271 µM) under setting [1]; 0.1 µg/mL (≈ 0.271 µM) under setting [2]; 0.1 µg/mL (≈ 0.271 µM) under setting [3]; 0.1 µg/mL (≈ 0.271 µM) (Standard strain ATCC 43504); 0.1 µg/mL (≈ 0.271 µM) (Standard strain ATCC 43570); 0.1 µg/mL (≈ 0.271 µM) (Standard strain ATCC 43629).
Regarding `CCCCCOc1ccnc(CSc2nc3ccccc3[nH]2)c1C` [Example 1, 2-[(4-n-pentyloxy-3-methylpyridin-2-yl)-methylthio]-1H-benzimidazole], the MIC is 0.1 µg/mL (≈ 0.293 µM) under setting [1]; 0.06 µg/mL (≈ 0.176 µM) under setting [2]; 0.06 µg/mL (≈ 0.176 µM) under setting [3]; 0.1 µg/mL (≈ 0.293 µM) (Standard strain ATCC 43504); under 0.015 µg/mL (Standard strain ATCC 43570); 0.06 µg/mL (≈ 0.176 µM) (Standard strain ATCC 43629).
On to `CCCCCCOc1ccnc(CSc2nc3ccccc3[nH]2)c1C` [Example 2, 2-[(4-n-hexyloxy-3-methylpyridin-2-yl)-methylthio]-1H-benzimidazole], for which the MIC by setting is: under setting [1], 0.1 µg/mL (≈ 0.281 µM); under setting [2], 0.1 µg/mL (≈ 0.281 µM); under setting [3], 0.1 µg/mL (≈ 0.281 µM); (Standard strain ATCC 43504) 0.1 µg/mL (≈ 0.281 µM); (Standard strain ATCC 43570) 0.03 µg/mL (≈ 0.0844 µM); (Standard strain ATCC 43629) 0.1 µg/mL (≈ 0.281 µM).
